tested on: NBD1/3D; experiment: Aggregation analysis using differential static light scattering (DSLS), NBD1 thermal stability; type: binding, Human; details: ΔTagg versus DMSO control; compound at 100 μM
In short: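 Thermal stabilisation reported as ΔTagg, i.e. aggregation temperature relative to averaged DMSO wells. Tagg came from the inflection of differential static light scattering imaged 25–70 °C while NBD1 (0.2 mg/ml, Tris pH 7.6 buffer containing ATP, MgCl2, DTT, glycerol) was ramped 1 °C/min.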

SMILES	DSLS NBD1/3D Human Stability delta-T (° C.) @ 100 (μM)
CC(C#N)(c1cccc(CCC(=O)O)c1)c1c[nH]c(-c2cc(Oc3c(F)cc4[nH]ccc4c3F)ccc2F)n1 (stereo not shown) [Example 58, 3-(3-(1-cyano-1-(2-(5-((4,6-difluoro-1H-indol-5-yl)oxy)-2-fluorophenyl)-1H-imidazol-4-yl)ethyl)phenyl)propanoic acid]	B (B: 5-10° C.)
[2H]C([2H])([2H])C(C#N)(c1cccc(CCC(=O)O)c1)c1cnc(-c2cc(Oc3c(F)cc4[nH]ccc4c3C)ccc2F)[nH]1 (stereo not shown) [Example 59, 3-(3-(1-cyano-1-(2-(2-fluoro-5-((6-fluoro-4-methyl-1H-indol-5-yl)oxy)phenyl)-1H-imidazol-5-yl)ethyl-2,2,2-d3)phenyl)propanoic acid]	B (B: 5-10° C.)
[2H]C([2H])([2H])C(C#N)(c1cccc(CCC(=O)O)c1)c1cnc(-c2cc(Oc3c(F)cc4[nH]ccc4c3F)ccc2F)[nH]1 (stereo not shown) [Example 60, 3-(3-(1-cyano-1-(2-(5-((4,6-difluoro-1H-indol-5-yl)oxy)-2-fluorophenyl)-1H-imidazol-5-yl)ethyl-2,2,2-d3)phenyl)propanoic acid]	B (B: 5-10° C.)
CC(C#N)(c1cccc(CCC(=O)O)c1)c1cnc(-c2cc(Oc3nc4cc[nH]c4cc3F)ccc2F)[nH]1 (stereo not shown) [Example 61, 3-(3-(1-cyano-1-(2-(2-fluoro-5-((6-fluoro-1H-pyrrolo[3,2-b]pyridin-5-yl)oxy)phenyl)-1H-imidazol-5-yl)ethyl)phenyl)propanoic acid]	B (B: 5-10° C.)
CC(C#N)(c1cccc(CCC(=O)O)c1)c1cnc(-c2cc(Oc3c(F)cc4[nH]cnc4c3F)ccc2F)[nH]1 (stereo not shown) [Example 62, 3-(3-(1-cyano-1-(2-(5-((4,6-difluoro-1H-benzo[d]imidazol-5-yl)oxy)-2-fluorophenyl)-1H-imidazol-5-yl)ethyl)phenyl)propanoic acid]	B (B: 5-10° C.)
[2H]C([2H])([2H])C(C#N)(c1cc(F)cc(CCC(=O)O)c1)c1cnc(-c2cc(Oc3c(F)c(F)c4[nH]ccc4c3C)ccc2F)[nH]1 (stereo not shown) [Example 63, 3-(3-(1-cyano-1-(2-(5-((6,7-difluoro-4-methyl-1H-indol-5-yl)oxy)-2-fluorophenyl)-1H-imidazol-5-yl)ethyl-2,2,2-d3)-5-fluorophenyl)propanoic acid]	B (B: 5-10° C.)
CC(CO)(c1cccc(CCC(=O)O)c1)c1cnc(-c2cc(Oc3c(F)cc4[nH]ccc4c3S(C)(=O)=O)ccc2F)[nH]1 (stereo not shown) [Example 68, 3-(3-(2-(2-(2-Fluoro-5-((6-fluoro-4-(methylsulfonyl)-1H-indol-5-yl)oxy)phenyl)-1H-imidazol-5-yl)-1-hydroxypropan-2-yl)phenyl)propanoic acid]	A (A: T ≥ 10° C.)
CC(CO)(c1cccc(CCC(=O)O)c1)c1c[nH]c(-c2cc(Oc3c(F)c(F)c4[nH]ccc4c3S(C)(=O)=O)ccc2F)n1 (stereo not shown) [Example 69, 3-(3-(2-(2-(5-((6,7-difluoro-4-(methylsulfonyl)-1H-indol-5-yl)oxy)-2-fluorophenyl)-1H-imidazol-5-yl)-1-hydroxypropan-2-yl)phenyl)propanoic acid]	A (A: T ≥ 10° C.)
CO[C@]1(C)C[C@@](c2cccc(CCC(=O)O)c2)(c2cnc(-c3cc(Oc4c(F)c(F)c5[nH]ccc5c4S(C)(=O)=O)ccc3F)[nH]2)C1 [Example 70, rac-3-(3-((1r,3r)-1-(2-(5-((6,7-Difluoro-4-(methylsulfonyl)-1H-indol-5-yl)oxy)-2-fluorophenyl)-1H-imidazol-5-yl)-3-methoxy-3-methylcyclobutyl)phenyl)propanoic acid]	A (A: T ≥ 10° C.)
CO[C@]1(C)C[C@@](c2cccc(CCC(=O)O)c2)(c2c[nH]c(-c3cc(Oc4c(F)cc5[nH]ccc5c4S(C)(=O)=O)ccc3F)n2)C1 [Example 71, 3-(3-((1r,3r)-1-(2-(2-fluoro-5-((6-fluoro-4-(methylsulfonyl)-1H-indol-5-yl)oxy)phenyl)-1H-imidazol-4-yl)-3-methoxy-3-methylcyclobutyl)phenyl)propanoic acid]	A (A: T ≥ 10° C.)
CO[C@]1(C)C[C@@](c2cc(F)cc(CCC(=O)O)c2)(c2c[nH]c(-c3cc(Oc4c(F)cc5[nH]ccc5c4S(C)(=O)=O)ccc3F)n2)C1 [Example 72, 3-(3-Fluoro-5-((1r,3r)-1-(2-(2-fluoro-5-((6-fluoro-4-(methylsulfonyl)-1H-indol-5-yl)oxy)phenyl)-1H-imidazol-5-yl)-3-methoxy-3-methylcyclobutyl)phenyl)propanoic acid]	A (A: T ≥ 10° C.)
CO[C@]1(C)C[C@](c2cc(F)cc(CCC(=O)O)c2)(c2cnc(-c3cc(Oc4c(F)cc5[nH]ccc5c4S(C)(=O)=O)ccc3F)[nH]2)C1 [Example 73, 3-(3-fluoro-5-((1s,3s)-1-(2-(2-fluoro-5-((6-fluoro-4-(methylsulfonyl)-1H-indol-5-yl)oxy)phenyl)-1H-imidazol-5-yl)-3-methoxy-3-methylcyclobutyl)-phenyl)propanoic acid]	A (A: T ≥ 10° C.)
CC(CC#N)(c1cccc(CCC(=O)O)c1)c1cnc(-c2cc(Oc3c(F)cc4[nH]ccc4c3S(C)(=O)=O)ccc2F)[nH]1 (stereo not shown) [Example 76, 3-(3-(1-Cyano-2-(2-(2-fluoro-5-((6-fluoro-4-(methylsulfonyl)-1H-indol-5-yl)oxy)phenyl)-1H-imidazol-5-yl)propan-2-yl)phenyl)propanoic acid]	A (A: T ≥ 10° C.)
CC(CC#N)(c1cccc(CCC(=O)O)c1)c1cnc(-c2cc(Oc3c(F)cc4[nH]ccc4c3F)ccc2F)[nH]1 (stereo not shown) [Example 77, 3-(3-(1-cyano-2-(2-(5-((4,6-difluoro-1H-indol-5-yl)oxy)-2-fluorophenyl)-1H-imidazol-5-yl)propan-2-yl)phenyl)propanoic acid]	B (B: 5-10° C.)
CS(=O)(=O)c1c(Oc2ccc(F)c(-c3ncc(C4(c5cccc(CCC(=O)O)c5)CC(F)(F)C4)[nH]3)c2)c(F)cc2[nH]ccc12 [Example 78, 3-(3-(3,3-Difluoro-1-(2-(2-fluoro-5-((6-fluoro-4-(methylsulfonyl)-1H-indol-5-yl)oxy)phenyl)-1H-imidazol-5-yl)cyclobutyl)phenyl)propanoic acid]	A (A: T ≥ 10° C.)
CS(=O)(=O)c1c(Oc2ccc(F)c(-c3nc(C4(c5cccc(CCC(=O)O)c5)CC(F)(F)C4)cs3)c2)c(F)cc2[nH]ccc12 [Example 79, 3-(3-(3,3-Difluoro-1-(2-(2-fluoro-5-((6-fluoro-4-(methylsulfonyl)-1H-indol-5-yl)oxy)phenyl)thiazol-4-yl)cyclobutyl)phenyl)propanoic acid]	B (B: 5-10° C.)
CS(=O)(=O)c1c(Oc2ccc(F)c(-c3nc(C4(c5cccc(CCC(=O)O)c5)CC4)co3)c2)c(F)cc2[nH]ccc12 [Example 81, 3-(3-(1-(2-(2-Fluoro-5-((6-fluoro-4-(methylsulfonyl)-1H-indol-5-yl)oxy)phenyl)oxazol-4-yl)cyclopropyl)phenyl)propanoic acid]	B (B: 5-10° C.)
O=C(O)CCc1cccc(C2(c3cnc(-c4cc(Oc5c(F)cc6[nH]ccc6c5SC(F)(F)F)ccc4F)[nH]3)CCOCC2)c1 [Example 82, 3-(3-(4-(2-(2-Fluoro-5-((6-fluoro-4-((trifluoromethyl)thio)-1H-indol-5-yl)oxy)phenyl)-1H-imidazol-5-yl)tetrahydro-2H-pyran-4-yl)phenyl)propanoic acid]	B (B: 5-10° C.)
O=C(O)CCc1cccc(C(O)c2cnc(-c3cccc(Oc4c(F)cc5[nH]ccc5c4-c4nccs4)c3)[nH]2)c1 (stereo not shown) [Example 87, 3-(3-((2-(3-((6-Fluoro-4-(thiazol-2-yl)-1H-indol-5-yl)oxy)phenyl)-1H-imidazol-5-yl)(hydroxy)methyl)phenyl)propanoic acid]	B (B: 5-10° C.)
CC(O)(c1cccc(CCC(=O)O)c1)c1csc(-c2cc(Oc3c(F)cc4[nH]ccc4c3S(C)(=O)=O)ccc2F)n1 (stereo not shown) [Example 88, 3-(3-(1-(2-(2-Fluoro-5-((6-fluoro-4-(methylsulfonyl)-1H-indol-5-yl)oxy)phenyl)thiazol-4-yl)-1-hydroxyethyl)phenyl)propanoic acid]	B (B: 5-10° C.)
Cc1c(Oc2ccc(F)c(-c3nc(Cc4csc(CCC(=O)O)n4)c[nH]3)c2)c(F)cc2[nH]ccc12 [Example 89, 3-(4-((2-(2-Fluoro-5-((6-fluoro-4-methyl-1H-indol-5-yl)oxy)phenyl)-1H-imidazol-4-yl)methyl)thiazol-2-yl)propanoic acid]	B (B: 5-10° C.)
Cc1c(Oc2ccc(F)c(-c3ncc(Cc4cccc(CCC(=O)O)n4)[nH]3)c2)c(F)cc2[nH]ccc12 [Example 90, 3-(6-((2-(2-fluoro-5-((6-fluoro-4-methyl-1H-indol-5-yl)oxy)phenyl)-1H-imidazol-5-yl)methyl)pyridin-2-yl)propanoic acid]	B (B: 5-10° C.)
Cc1c(Oc2ccc(F)c(-c3ncc(Cc4cccc(CC(=O)O)n4)[nH]3)c2)c(F)cc2[nH]ccc12 [Example 91, 2-(6-((2-(2-fluoro-5-((6-fluoro-4-methyl-1H-indol-5-yl)oxy)phenyl)-1H-imidazol-5-yl)methyl)pyridin-2-yl)acetic acid]	B (B: 5-10° C.)
CP(C)(=O)c1c(Oc2cccc(-c3nc(Cc4cccc(CCC(=O)O)c4)cs3)c2)c(F)cc2[nH]ccc12 [Example 92, 3-(3-((2-(3-((4-(Dimethylphosphoryl)-6-fluoro-1H-indol-5-yl)oxy)phenyl)thiazol-4-__yl)methy)phenyl)propanoic acid]	B (B: 5-10° C.)
CS(=O)(=O)c1c(Oc2ccc(F)c(-c3nc(Cc4cccc(CCC(=O)O)c4)cs3)c2)c(F)cc2[nH]ccc12 [Example 93, 3-(3-((2-(2-fluoro-5-((6-fluoro-4-(methylsulfonyl)-1H-indol-5-yl)oxy)phenyl)thiazol-4-yl)methyl)phenyl)propanoic acid]	B (B: 5-10° C.)
